Data on 12 compounds can be found in PubChem BioAssay (NCI).

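Five compound concentrations were applied to cells in 96-well plates for 48 hours; endpoints were derived by simple linear interpolation of the resulting dose-response curve. Here, GI50 denotes the concentration required for 50% inhibition of growth. At the TGI there is no net growth.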

Test systems include A498 renal; COLO 205 colon; LOX IMVI melanoma; SNB-75 CNS; SF-539 CNS; RPMI-8226 leukemia; 786-0 renal; NCI-H460 lung; UACC-257 melanoma; MCF7 breast.
Holding throughout (test): inhibition of tumour cell growth, NCI panel, 48 h

In the case of `CN(C)S(=O)(=O)Nc1ccccn1`, the TGI with A498 renal, in the experiment with COLO 205 colon, with LOX IMVI melanoma, in the experiment with SNB-75 CNS, in the experiment on SF-539 CNS and in the experiment with RPMI-8226 leukemia was > 100 µM throughout. Further, the TGI with 786-0 renal, with NCI-H460 lung, in the experiment on UACC-257 melanoma and in the experiment on MCF7 breast was > 100 µM each time.
Take `O=C1CSC(N2CCN(c3cccc(Cl)c3)CC2)=N1`: the GI50 in the experiment with A498 renal is > 100 µM; with COLO 205 colon, > 100 µM; in the experiment with LOX IMVI melanoma, > 100 µM; in the experiment with SNB-75 CNS, 84.9 µM; in the experiment on SF-539 CNS, > 100 µM; in the experiment on RPMI-8226 leukemia, > 100 µM. Besides, the GI50 in the experiment on 786-0 renal, with NCI-H460 lung, in the experiment on UACC-257 melanoma and in the experiment with MCF7 breast was > 100 µM in each case. Further, the TGI in the experiment on A498 renal, in the experiment on COLO 205 colon, in the experiment with LOX IMVI melanoma, in the experiment on SNB-75 CNS, in the experiment on SF-539 CNS and in the experiment with RPMI-8226 leukemia was > 100 µM throughout. Further, the TGI in the experiment with 786-0 renal, in the experiment on NCI-H460 lung, in the experiment on UACC-257 melanoma and in the experiment with MCF7 breast was > 100 µM each time.
Turning to `COc1cc2c(c(O)c1C)C(=O)C(Cl)=CC2=O`, the TGI was 33.9 µM in the experiment on A498 renal; 4.96 µM in the experiment with COLO 205 colon; 23.8 µM in the experiment on LOX IMVI melanoma; 31.5 µM with SNB-75 CNS; 33.5 µM in the experiment on SF-539 CNS; 68.3 µM in the experiment with RPMI-8226 leukemia. The TGI in the experiment with 786-0 renal was determined as 28.2 µM; with NCI-H460 lung, 63.3 µM; in the experiment with UACC-257 melanoma, 18.7 µM; in the experiment with MCF7 breast, 15.8 µM.
For the compound `CCN1CCN(c2nc(NCCNc3ccnc4cc(Cl)ccc34)c3ccccc3n2)CC1`, the GI50 is 1.68 µM in the experiment on A498 renal; 0.505 µM in the experiment on COLO 205 colon; 1.51 µM with LOX IMVI melanoma; 1.94 µM in the experiment with SNB-75 CNS; 1.83 µM in the experiment with SF-539 CNS; 1.54 µM in the experiment on RPMI-8226 leukemia. Moreover, the GI50 with 786-0 renal was 1.03 µM; in the experiment with NCI-H460 lung it was 1.91 µM; in the experiment with UACC-257 melanoma it was 2.62 µM; with MCF7 breast it was 1.11 µM. Moreover, the TGI in the experiment with A498 renal was 3.35 µM; in the experiment with COLO 205 colon, 2.07 µM; in the experiment on LOX IMVI melanoma, 3.01 µM; in the experiment with SNB-75 CNS, 5.85 µM; with SF-539 CNS, 3.36 µM; with RPMI-8226 leukemia it was 4.41 µM. In addition, the TGI in the experiment on 786-0 renal stood at 2.44 µM; in the experiment with NCI-H460 lung it was 5.33 µM; in the experiment on UACC-257 melanoma it was 4.8 µM; in the experiment with MCF7 breast it was 11 µM.
Regarding `O=[n+]1c(CBr)c(CBr)n([O-])c2ccccc21`, the GI50 in the experiment on A498 renal was 41.3 µM; in the experiment with COLO 205 colon, 2.04 µM; in the experiment on LOX IMVI melanoma it was 1.8 µM; in the experiment with SNB-75 CNS, 10.6 µM; with SF-539 CNS it was 13.3 µM; in the experiment with RPMI-8226 leukemia it was 2.73 µM. Moreover, the GI50 is 11.9 µM with 786-0 renal, 16.9 µM in the experiment with NCI-H460 lung, 13.6 µM in the experiment on UACC-257 melanoma and 3.11 µM in the experiment on MCF7 breast. Moreover, the TGI with A498 renal was > 100 µM; in the experiment on COLO 205 colon, 3.99 µM; with LOX IMVI melanoma it was 3.48 µM; in the experiment with SNB-75 CNS, 47.6 µM; with SF-539 CNS, 26.3 µM; in the experiment with RPMI-8226 leukemia it was 8.39 µM. Besides, the TGI was determined as 25.7 µM in the experiment with 786-0 renal, 34.6 µM with NCI-H460 lung, 27.6 µM in the experiment with UACC-257 melanoma and 12.4 µM with MCF7 breast.
Turning to `Cn1cc(C2=C(c3ccc(OC[C@@H](O)CO)cc3)C(=O)NC2=O)c2ccccc21`, the GI50 is 3.54 µM in the experiment on A498 renal; > 25 µM with COLO 205 colon; > 25 µM with LOX IMVI melanoma; 2.23 µM in the experiment with SNB-75 CNS; > 25 µM in the experiment on SF-539 CNS; > 25 µM in the experiment on RPMI-8226 leukemia. In addition, the GI50 in the experiment on 786-0 renal, with NCI-H460 lung, in the experiment on UACC-257 melanoma and in the experiment on MCF7 breast was > 25 µM each time. For the same compound, the TGI with A498 renal was 15.3 µM; in the experiment on COLO 205 colon, > 25 µM; in the experiment on LOX IMVI melanoma, > 25 µM; with SNB-75 CNS, > 25 µM; in the experiment on SF-539 CNS, > 25 µM; in the experiment on RPMI-8226 leukemia, > 25 µM. The TGI in the experiment on 786-0 renal, in the experiment on NCI-H460 lung, with UACC-257 melanoma and in the experiment with MCF7 breast was > 25 µM in each case.
Consider `CN(C)CCNc1nc2ccccc2c2[nH]c3ccccc3c12`, for which the GI50 was 5.32 µM in the experiment on A498 renal; 0.316 µM with COLO 205 colon; 0.301 µM with LOX IMVI melanoma; 1.22 µM with SNB-75 CNS; 0.891 µM in the experiment with SF-539 CNS; 0.648 µM in the experiment with RPMI-8226 leukemia. Moreover, the GI50 in the experiment with 786-0 renal was 0.396 µM; with NCI-H460 lung, 0.244 µM; in the experiment with UACC-257 melanoma, 3.74 µM; in the experiment with MCF7 breast, 0.129 µM. Besides, the TGI in the experiment on A498 renal was 11 µM; in the experiment on COLO 205 colon, 1.09 µM; with LOX IMVI melanoma, 1.11 µM; with SNB-75 CNS, 3.2 µM; with SF-539 CNS it was 3.06 µM; in the experiment with RPMI-8226 leukemia, 1.97 µM. The TGI was 2.51 µM in the experiment with 786-0 renal, 1.97 µM in the experiment with NCI-H460 lung, 16.9 µM in the experiment with UACC-257 melanoma and 0.941 µM with MCF7 breast.
As to `COc1cc2c(c(OC)c1OC)-c1ccc(NCc3ccccc3)c(=O)cc1[C@@H](NC(C)=O)CC2`, the GI50 in the experiment on A498 renal is 0.248 µM; with COLO 205 colon it was 0.277 µM; with LOX IMVI melanoma, 0.444 µM; in the experiment with SNB-75 CNS, 0.318 µM; in the experiment with SF-539 CNS, 0.309 µM; in the experiment with RPMI-8226 leukemia, 0.531 µM. For the same compound, the GI50 was 0.745 µM in the experiment with 786-0 renal, 0.369 µM with NCI-H460 lung, 0.671 µM in the experiment on UACC-257 melanoma and 0.337 µM in the experiment with MCF7 breast. Further, the TGI in the experiment on A498 renal was 0.771 µM; with COLO 205 colon, 0.638 µM; with LOX IMVI melanoma, 14.9 µM; with SNB-75 CNS it was 25.2 µM; in the experiment with SF-539 CNS, 3.51 µM; in the experiment with RPMI-8226 leukemia it was 16.3 µM. Further, the TGI in the experiment on 786-0 renal turned out to be 46.8 µM; in the experiment on NCI-H460 lung, 18 µM; in the experiment with UACC-257 melanoma, 37.5 µM; with MCF7 breast it was 19.7 µM.
Turning to `Cn1c(-c2nonc2N)nc2cnccc21`, the GI50 in the experiment with A498 renal was 16 µM; in the experiment with COLO 205 colon, > 25 µM; in the experiment on LOX IMVI melanoma, > 25 µM; in the experiment with SNB-75 CNS, > 12.8 µM; in the experiment with SF-539 CNS it was 12.2 µM; in the experiment on RPMI-8226 leukemia, > 25 µM. The GI50 in the experiment on 786-0 renal, in the experiment on NCI-H460 lung, in the experiment on UACC-257 melanoma and in the experiment with MCF7 breast was > 25 µM each time. In addition, the TGI in the experiment with A498 renal was > 25 µM; with COLO 205 colon it was > 25 µM; in the experiment on LOX IMVI melanoma, > 25 µM; with SNB-75 CNS, > 24 µM; in the experiment on SF-539 CNS, > 25 µM; with RPMI-8226 leukemia, > 25 µM. Also, the TGI in the experiment on 786-0 renal, in the experiment with NCI-H460 lung, with UACC-257 melanoma and in the experiment on MCF7 breast was > 25 µM in each case.
As for `CN(C)c1ccc(/C=C2\C[N+](C)(C)C/C(=C\c3ccc(N(C)C)cc3)C2=O)cc1`, the TGI was > 100 µM in the experiment with A498 renal; 8.36 µM with COLO 205 colon; 36.4 µM with LOX IMVI melanoma; 67.3 µM in the experiment on SNB-75 CNS; 49.9 µM in the experiment on SF-539 CNS; 28.5 µM in the experiment on RPMI-8226 leukemia. Moreover, the TGI in the experiment with 786-0 renal is 85.3 µM; in the experiment on NCI-H460 lung, > 59 µM; with UACC-257 melanoma, 32.4 µM; in the experiment with MCF7 breast, 30.5 µM.
Take `CC[n+]1ccc2c(c1)C(=O)c1nccc3c1c-2nc1ccccc13`: the GI50 with A498 renal was 0.874 µM; in the experiment on COLO 205 colon it was 1.13 µM; in the experiment with LOX IMVI melanoma, 2.19 µM; in the experiment on SNB-75 CNS it was 0.678 µM; with SF-539 CNS, 0.489 µM; in the experiment with RPMI-8226 leukemia it was 6.49 µM. The GI50 in the experiment on 786-0 renal is 0.768 µM; with NCI-H460 lung, 0.12 µM; in the experiment with UACC-257 melanoma, 3.42 µM; in the experiment on MCF7 breast, 0.587 µM. Besides, the TGI with A498 renal is 6.13 µM; in the experiment with COLO 205 colon, 5.22 µM; in the experiment with LOX IMVI melanoma, 7.93 µM; in the experiment with SNB-75 CNS it was 2.56 µM; in the experiment with SF-539 CNS, 1.47 µM; with RPMI-8226 leukemia, 21.7 µM. The TGI in the experiment on 786-0 renal came out at 2.97 µM; in the experiment on NCI-H460 lung, 2.65 µM; in the experiment with UACC-257 melanoma, 9.06 µM; with MCF7 breast it was 4.84 µM.
For the compound `OC(c1cccc(C(F)(F)F)c1)c1cnccc1NC1CCCCCC1` (stereo not given), the GI50 in the experiment with A498 renal is 3.68 µM; in the experiment on COLO 205 colon, 1.73 µM; in the experiment with LOX IMVI melanoma, 1.59 µM; with SNB-75 CNS, 1.77 µM; in the experiment with SF-539 CNS it was 1.71 µM; in the experiment with RPMI-8226 leukemia it was 1.67 µM. Further, the GI50 was 1.62 µM in the experiment with 786-0 renal, 1.84 µM in the experiment with NCI-H460 lung, 2.36 µM with UACC-257 melanoma and 1.66 µM with MCF7 breast. Further, the TGI worked out at 15.9 µM in the experiment with A498 renal; 3.37 µM with COLO 205 colon; 2.98 µM in the experiment on LOX IMVI melanoma; 8.25 µM in the experiment with SNB-75 CNS; 3.15 µM with SF-539 CNS; 4.11 µM in the experiment with RPMI-8226 leukemia. For the same compound, the TGI came out at 3.08 µM with 786-0 renal, 3.57 µM in the experiment on NCI-H460 lung, 4.66 µM with UACC-257 melanoma and 3.51 µM in the experiment on MCF7 breast.
